From patent US20230081426A1, “COMPOUNDS AND METHODS FOR KRAS MODULATION AND INDICATIONS THEREFOR” (Plexxikon Inc., priority 2020, published 2023) come the findings set out here.

Each structure is given as a SMILES string.

Experiment [1] addresses T1, G12D-mutant human KRAS (amino acid residues 1-188) (Homo sapiens, UniProt P01116, G12D).
T1 construct: G12D or G12C-mutant human KRAS (amino acid residues 1-188) with FLAG tag; made in house; host or cells: E. coli
Nature of the experiment: KRAS Binding Disruption Assay (AlphaScreen; biotinylated KRpep-2d analogue or RAF1-RBD), G12D. The conditions noted are these: KRAS G12D; geometric mean; read-out: KRAS GMean IC50 (uM) MUTATION: G12D. The procedure, abridged:
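AlphaScreen readout: signal falls as compound displaces biotinylated KRpep-2d analogue or RAF1-RBD from mutant KRAS. Both partners at 5-20 nM, 1 h binding at 25° C, then 10 μg/mL Anti-Flag acceptor and streptavidin donor beads for 1 h. IC50 by nonlinear regression of % inhibition.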

Experiment [2] deals with T2, G12V-mutant human KRAS (amino acid residues 1-188) (Homo sapiens, UniProt P01116, G12V).
T2 construct: G12V-mutant human KRAS (amino acid residues 1-188) with FLAG tag was purified from E. coli; made in house; host or cells: E. coli
Put plainly: KRAS Binding Competition Assay (AlphaScreen; biotinylated KRpep-2d analogue), G12V. The conditions noted are these: geometric mean, read-out: KRAS GMean IC50 (uM) MUTATION: G12V.

For orientation: IC50 means the concentration at which inhibition is half-maximal. Turning to `CN1CCC[C@H]1COc1nc(N2[C@@H]3CC[C@H]2CN(CCO)C3)c2ccc(-c3cc(O)cc4ccccc34)cc2n1` [P-0145, 4-(4-((1R,5S)-3-(2-hydroxyethyl)-3,8-diazabicyclo[3.2.1]octan-8-yl)-2-(((S)-1-methylpyrrolidin-2-yl)methoxy)quinazolin-7-yl)naphthalen-2-ol], the half-maximal inhibitory concentration (IC50) in experiment [1] and in experiment [2] was 10 to 100 µM in each case.
`CN(C)CCCC(=O)N1[C@@H]2CC[C@H]1CN(c1nc(OCC34CCCN3CCC4)nc3c(F)c(-c4cc(O)cc5ccccc45)ccc13)C2` [P-0146, 4-(dimethylamino)-1-((1R,5S)-3-(8-fluoro-7-(3-hydroxynaphthalen-1-yl)-2-((tetrahydro-1H-pyrrolizin-7a(5H)-yl)methoxy)quinazolin-4-yl)-3,8-diazabicyclo[3.2.1]octan-8-yl)butan-1-one]: the concentration for half-maximal inhibition (IC50) in experiment [1] and in experiment [2] was 0.0001 to 10 µM each time.
`O=C(C1C2CCC1CNC2)N1[C@@H]2CC[C@H]1CN(c1nc(OCC34CCCN3CCC4)nc3c(F)c(-c4cc(O)cc5ccccc45)ccc13)C2` (stereo partly drawn) [P-0147, (3-azabicyclo[3.2.1]octan-8-yl)((1R,5S)-3-(8-fluoro-7-(3-hydroxynaphthalen-1-yl)-2-((tetrahydro-1H-pyrrolizin-7a(5H)-yl)methoxy)quinazolin-4-yl)-3,8-diazabicyclo[3.2.1]octan-8-yl)methanone]: the half-inhibitory concentration (IC50) in experiment [1] and in experiment [2] was 0.0001 to 10 µM in each case.
Take `CN1CCC[C@H]1COc1nc(N2[C@@H]3CC[C@H]2CNC3)c2ccc(-c3cccc(C(N)=O)n3)cc2n1` [P-0148, 6-(4-((1R,5S)-3,8-diazabicyclo[3.2.1]octan-8-yl)-2-(((S)-1-methylpyrrolidin-2-yl)methoxy)quinazolin-7-yl)picolinamide]: the 50% inhibitory concentration (IC50) fell in the range of 100 to 1000 µM in experiment [1] and 10 to 100 µM in experiment [2].
With `CN1CCC(CC(=O)N2[C@@H]3CC[C@H]2CN(c2nc(OCC45CCCN4CCC5)nc4c(F)c(-c5cc(O)cc6ccccc56)ccc24)C3)CC1` [P-0149, 1-((1R,5S)-3-(8-fluoro-7-(3-hydroxynaphthalen-1-yl)-2-((tetrahydro-1H-pyrrolizin-7a(5H)-yl)methoxy)quinazolin-4-yl)-3,8-diazabicyclo[3.2.1]octan-8-yl)-2-(1-methylpiperidin-4-yl)ethan-1-one], the IC50 in experiment [1] and in experiment [2] was 0.0001 to 10 µM in each case.
As to `O=C(CCCN1CCCCC1)N1[C@@H]2CC[C@H]1CN(c1nc(OCC34CCCN3CCC4)nc3c(F)c(-c4cc(O)cc5ccccc45)ccc13)C2` [P-0150, 1-((1R,5S)-3-(8-fluoro-7-(3-hydroxynaphthalen-1-yl)-2-((tetrahydro-1H-pyrrolizin-7a(5H)-yl)methoxy)quinazolin-4-yl)-3,8-diazabicyclo[3.2.1]octan-8-yl)-4-(piperidin-1-yl)butan-1-one], the IC50 in experiment [1] and in experiment [2] was 0.0001 to 10 µM each time.
Consider `CN1CCC[C@H]1COc1nc(N2C[C@H]3CC[C@@H](C2)N3)c2ccc(-c3ccccc3)cc2n1` [P-0151, 4-((1R,5S)-3,8-diazabicyclo[3.2.1]octan-3-yl)-2-(((S)-1-methylpyrrolidin-2-yl)methoxy)-7-phenylquinazoline], for which the IC50 in experiment [1] and in experiment [2] was 100 to 1000 µM each time.
Consider `Cc1ccc(N)cc1-c1ccc2c(N3C[C@H]4CC[C@@H](C3)N4)nc(OC[C@@H]3CCCN3C)nc2c1` [P-0152, 3-(4-((1R,5S)-3,8-diazabicyclo[3.2.1]octan-3-yl)-2-(((S)-1-methylpyrrolidin-2-yl)methoxy)quinazolin-7-yl)-4-methylaniline], for which the half-inhibitory concentration (IC50) in experiment [1] and in experiment [2] was 10 to 100 µM throughout.
In the case of `CN1CCC[C@H]1COc1nc(N2C[C@H]3CC[C@@H](C2)N3)c2ccc(-c3cc4ccccc4s3)cc2n1` [P-0153, 7-(benzo[b]thiophen-2-yl)-4-((1R,5S)-3,8-diazabicyclo[3.2.1]octan-3-yl)-2-(((S)-1-methylpyrrolidin-2-yl)methoxy)quinazoline], the IC50 in experiment [1] was in the range of 10 to 100 µM; in experiment [2] it was 100 to 1000 µM.
The like results for `CN1CCC[C@H]1COc1nc(N2C[C@H]3CC[C@@H](C2)N3)c2ccc(-c3csc4ccccc34)cc2n1` [P-0154, 7-(benzo[b]thiophen-3-yl)-4-((1R,5S)-3,8-diazabicyclo[3.2.1]octan-3-yl)-2-(((S)-1-methylpyrrolidin-2-yl)methoxy)quinazoline] were, in that order, 10 to 100 µM and 10 to 100 µM.
The like results for `Cc1cc2cn[nH]c2cc1-c1ccc2c(N3C[C@H]4CC[C@@H](C3)N4)nc(OCC3CCCN3C)nc2c1` (stereo partly drawn) [P-0155, 4-((1R,5S)-3,8-diazabicyclo[3.2.1]octan-3-yl)-7-(5-methyl-1H-indazol-6-yl)-2-((1-methylpyrrolidin-2-yl)methoxy)quinazoline] were, in that order, 100 to 1000 µM and 10 to 100 µM.
In the same order, the values of `CC(=O)Nc1cccc(-c2ccc3c(N4C[C@H]5CC[C@@H](C4)N5)nc(OCC4CCCN4C)nc3c2)c1` (stereo partly drawn) [P-0156, N-(3-(4-((1R,5S)-3,8-diazabicyclo[3.2.1]octan-3-yl)-2-((1-methylpyrrolidin-2-yl)methoxy)quinazolin-7-yl)phenyl)acetamide] are 100 to 1000 µM and 100 to 1000 µM.
As for `CN1CCC[C@H]1COc1nc(N2C[C@H]3CC[C@@H](C2)N3)c2ccc(-c3cc(N)c(Cl)cc3Cl)cc2n1` [P-0157, 5-(4-((1R,5S)-3,8-diazabicyclo[3.2.1]octan-3-yl)-2-(((S)-1-methylpyrrolidin-2-yl)methoxy)quinazolin-7-yl)-2,4-dichloroaniline], the figures for the IC50 in experiment [1] and in experiment [2] were 10 to 100 µM and 100 to 1000 µM, respectively.
As to `CN1CCC[C@H]1COc1nc(N2C[C@H]3CC[C@@H](C2)N3)c2ccc(-c3cc(N)cc(F)c3F)cc2n1` [P-0158, 3-(4-((1R,5S)-3,8-diazabicyclo[3.2.1]octan-3-yl)-2-(((S)-1-methylpyrrolidin-2-yl)methoxy)quinazolin-7-yl)-4,5-difluoroaniline], the half-inhibitory concentration (IC50) in experiment [1] and in experiment [2] was 10 to 100 µM in each case.
`CN1CCC[C@H]1COc1nc(N2C[C@H]3CC[C@@H](C2)N3)c2ccc(-c3ccc4c(c3)NC(=O)CO4)cc2n1` [P-0159, 6-(4-((1R,5S)-3,8-diazabicyclo[3.2.1]octan-3-yl)-2-(((S)-1-methylpyrrolidin-2-yl)methoxy)quinazolin-7-yl)-2H-benzo[b][1,4]oxazin-3(4H)-one]: the IC50 in experiment [1] and in experiment [2] was 100 to 1000 µM in each case.
On to `CC(=O)Nc1cncc(-c2ccc3c(N4C[C@H]5CC[C@@H](C4)N5)nc(OC[C@@H]4CCCN4C)nc3c2)c1` [P-0160, N-(5-(4-((1R,5S)-3,8-diazabicyclo[3.2.1]octan-3-yl)-2-(((S)-1-methylpyrrolidin-2-yl)methoxy)quinazolin-7-yl)pyridin-3-yl)acetamide], for which the IC50 in experiment [1] and in experiment [2] was 100 to 1000 µM throughout.
In the case of `Cc1ccc2[nH]ncc2c1-c1ccc2c(N3C[C@H]4CC[C@@H](C3)N4)nc(OC[C@@H]3CCCN3C)nc2c1` [P-0161, 4-((1R,5S)-3,8-diazabicyclo[3.2.1]octan-3-yl)-7-(5-methyl-1H-indazol-4-yl)-2-(((S)-1-methylpyrrolidin-2-yl)methoxy)quinazoline], the IC50 fell in the range of 0.0001 to 10 µM in experiment [1] and 100 to 1000 µM in experiment [2].
In the same order, the values of `CN1CCC[C@H]1COc1nc(N2C[C@H]3CC[C@@H](C2)N3)c2ccc(-c3ccc4cn[nH]c4c3)cc2n1` [P-0162, 4-((1R,5S)-3,8-diazabicyclo[3.2.1]octan-3-yl)-7-(1H-indazol-6-yl)-2-(((S)-1-methylpyrrolidin-2-yl)methoxy)quinazoline] are 100 to 1000 µM and 100 to 1000 µM.
The like results for `Cc1nc2cc(-c3ccc4c(N5C[C@H]6CC[C@@H](C5)N6)nc(OC[C@@H]5CCCN5C)nc4c3)ccc2[nH]1` [P-0163, 4-((1R,5S)-3,8-diazabicyclo[3.2.1]octan-3-yl)-7-(2-methyl-1H-benzo[d]imidazol-5-yl)-2-(((S)-1-methylpyrrolidin-2-yl)methoxy)quinazoline] were, in that order, 100 to 1000 µM and 100 to 1000 µM.
As for `CN1CCC[C@H]1COc1nc(N2C[C@H]3CC[C@@H](C2)N3)c2ccc(-c3c(F)ccc(O)c3F)cc2n1` [P-0164, 3-(4-((1R,5S)-3,8-diazabicyclo[3.2.1]octan-3-yl)-2-(((S)-1-methylpyrrolidin-2-yl)methoxy)quinazolin-7-yl)-2,4-difluorophenol], the values for the IC50 in experiment [1] and in experiment [2] were 10 to 100 µM and 100 to 1000 µM, respectively.
The like results for `CN1CCC[C@H]1COc1nc(N2C[C@H]3CC[C@@H](C2)N3)c2ccc(-c3c(O)cccc3F)cc2n1` [P-0165, 2-(4-((1R,5S)-3,8-diazabicyclo[3.2.1]octan-3-yl)-2-(((S)-1-methylpyrrolidin-2-yl)methoxy)quinazolin-7-yl)-3-fluorophenol] were, in that order, 10 to 100 µM and 10 to 100 µM.
The like results for `CN1CCC[C@H]1COc1nc(N2C[C@H]3CC[C@@H](C2)N3)c2ccc(-c3cc(Cl)ccc3O)cc2n1` [P-0166, 2-(4-((1R,5S)-3,8-diazabicyclo[3.2.1]octan-3-yl)-2-(((S)-1-methylpyrrolidin-2-yl)methoxy)quinazolin-7-yl)-4-chlorophenol] were, in that order, 100 to 1000 µM and 100 to 1000 µM.
The like results for `CC(=O)Nc1ccc(F)c(-c2ccc3c(N4C[C@H]5CC[C@@H](C4)N5)nc(OC[C@@H]4CCCN4C)nc3c2)c1` [P-0167, N-(3-(4-((1R,5S)-3,8-diazabicyclo[3.2.1]octan-3-yl)-2-(((S)-1-methylpyrrolidin-2-yl)methoxy)quinazolin-7-yl)-4-fluorophenyl)acetamide] were, in that order, 100 to 1000 µM and 100 to 1000 µM.
